Reference: patent publication EP1285971B1, “Methods for the phenotypic and genotypic assessment of the drug sensitivity of HIV integrase variants” (Tibotec Pharmaceuticals Ltd., priority 2001, dated 2003)
pEC50: −log10 of the molar value. Read-outs that look alike come from different tables or passages of the source.

Legend:
pHXB2D control = assay: Antiviral experiment with control clone, transfected directly without recombination; format: cell-based, HIV; conditions: AVE 6, pHXB2D control, no recombination
Description: Recombinant virus was produced by co-transfection by electroporation of the SmaI-linearized IN-deletion construct and the integrase amplicon into MT4 cells or MT4 cells equipped with an LTR driven reporter gene construct. Production of recombinant virus was evaluated by scoring the cytopathogenic effect (CPE) that is induced by HIV-infection of MT4 cells or by the LTR-driven reporter signal induced by HIV infection in MT4 reporter cells. Green fluorescent protein was used as the reporter signal. Viruses are harvested and titrated at maximum CPE. For recombination the deletion construct pSV40HXB2D-ΔIN was used. Recombination experiments were performed with amplicon from wildtype HIV IIIB and NL4.3, and patient sample 146514 generated by both primer sets. For each recombination 2 µg amplicon was co-transfected with 10 µg SmaI-digested pSV40HXB2D-ΔIN by electroporation into MT4-LTR-EGFP cells. Virus stocks were titrated and tested in an antiviral experiment on a reference panel including nucleoside reverse transcriptase inhibitors (NRTI), non- nucleoside reverse transcriptase inhibitors (NNRTI), protein inhibitor (PR), entry and integrase (IN) inhibitors (Table 2). Recombination was checked by nucleic acid sequence analysis using protocols known to the person skilled in the art. Sequencing primers which can be used are In_seq1F (SEQ ID NO 17), In_seq2F (SEQ ID NO 18), In_seq3F (SEQ ID NO 19), IN_seq1R (SEQ ID NO 20), IN_seq2R (SEQ ID NO 21), and IN_seq3R (SEQ ID NO 22). The recombinant virus was evaluated in an anti-viral assay with a panel of reference compounds including nucleoside RT inhibitors (NRTI) Zidovudine (AZT) Lamivudine (3TC), Didanosine (DDI), non-nucleoside RT inhibitors (NNRTI) Nevirapine (NVP), 4-[[6-amino-5-bromo-2-[(4-cyanophenyl)amino]-4-pyrimidinyl]oxy]-3,5-dimethyl-benzonitrile also referred to as compound 1, 4-[[6-amino-5-bromo-2-[(4-cyanophenyl)amino]-4-pyrimidinyl]oxy]-3,5-dimethyl-Benzonitrile, also referred to as compound 2 protease inhibitors (PR) Saquinavir (SQV), Amprenavir (APV), Indinavir (IDV), [[…]-3-[[(4-aminophenyl)sulfonyl](2-methylpropyl)amino]-2-hydroxy-1-(phenylmethyl)-propyl]-, (3R,3aS,6aR)-hexahydrofuro[2,3-b]furan-3-yl ester carbamic acid also referred to as compound 3, entry-inhibitors (Entry)(AMD3100, DS5000, ATA), and integrase inhibitor (IN) 2-(1-methylethyloxy)-α,γ dioxo-5-(phenylmethyl)-benzenebutanoic acid also referred to as compound 4. […] AVE means antiviral experiment. Type means the type of inhibitor investigated. The fold change is the fold change in EC50. WT III B means that a portion of the wild type IIIB strain has been amplified and used in the antiviral experiment, including transfection and generation of recombinant virus. NL 4-3 means the integrase gene of this laboratory strain has been amplified and subsequently used for the antiviral experiment. […] No recombination has been effected using this HIV clone. pHXB2D has been used directly for transfection and antiviral experiment. Primer set 3 consist of outer primers 5'EGINT3 (SEQ ID NO 4) and 3'EGINT10 (SEQ ID NO 11), and inner primers 5'EGINT4 (SEQ ID NO 5) and 3'EGINT6 (SEQ ID NO 7). Primer set 4 consist of outer primers 5'EGINT3 (SEQ ID NO 4) and 3'EGINT10 (SEQ ID NO 11), and inner primers 5'EGINT5 […] and 3'EGINT6 (SEQ ID NO 7). Other suitable integrase inhibitors include L-731,988, diketo-acids and S-1360.

patient_146514 = assay: microbe, parasite or virus in culture; format: cell-based, HIV; conditions: AVE 2, patient_146514, primer set 3
Description: (§1) The integrase encoding sequence was amplified from either wildtype HIV-1 (IIIB) or NL4.3 virus, or HXB2D site-directed mutant viruses containing mutations in integrase (such as T66I, S153Y, M154I, or combinations thereof) (Hazuda et al., Science 2000, 287, 646-650), or patient samples. Starting from RNA, extracted from virus supernatant or plasma using the QIAamp® viral RNA extraction kit (Qiagen), cDNA was synthesized by reverse transcription (Expand TM reverse transcriptase, 30 min at 42°C) with the primer 3'EGINT10 (SEQ ID NO 11), followed by a nested PCR. The outer PCR was performed with the primers 5'EGINT1 (SEQ ID NO 1) and 3'EGINT10 (SEQ ID NO 11) (ΔR-IN-vif construct) or 5'EGINT3 (SEQ ID NO 4) and 3'EGINT10 (SEQ ID NO 11) (ΔIN construct) (Expand™ High Fidelity PCR system), and 5 µl of the outer product was used for an inner PCR with primers 5'EGINT2 (SEQ ID NO 3) and 3'EGINT11 (SEQ ID NO 12) (ΔR-IN-vif construct) or 5'EGINT4 (SEQ ID NO 5) and 3'EGINT6 (SEQ ID NO 7) (ΔIN construct). In a second protocol the outer primers were identical as described above, the inner primers are 5'EGINT5 (SEQ ID NO 6) and 3'EGINT6 (SEQ ID NO 7). The amplicons can be used for genotyping and phenotyping. Cycling conditions for both PCRs are denaturation for 3 min at 95°C, followed by 30 cycles of 1 min 90°C, 30 sec 55°C, and 2 min 72°C. A final extension was performed at 72°C for 10 min. For recombination, PCR products are purified using the QiaQuick® 96 PCR BioRobot kit (Qiagen), according to the manufacturer's protocol. If the protocol starts from DNA containing the HIV material such as proviral DNA, the reverse transcriptase step is not needed. The nested approach is also not needed when starting from proviral DNA. The obtained amplicons were sequenced using the primers: In_seq1F (SEQ ID NO 17), In_seq2F (SEQ ID NO 18), In_seq3F (SEQ ID NO 19), IN_seq1R (SEQ ID NO 20), IN_seq2R (SEQ ID NO 21), and IN_seq3R (SEQ ID NO 22).
(§2) A ΔR-IN-vif or ΔIN deletion construct was generated by site-directed mutagenesis on the template pSV40HXB2D with the primers MUT-IN1 (SEQ ID NO 13) and MUT-IN2 (ΔR-IN-vif construct) (SEQ ID NO 14) or MUT-IN3 (SEQ ID NO 15) and MUT-IN4 (SEQ ID NO 16) (ΔIN construct) (protocol Site-directed mutagenesis kit, Stratagene). After DpnI digestion for removal of the methylated template DNA, the construct was digested with SmaI and ligated to circulize the plasmid. The plasmid was transformed into competent cells such as Top10 cells, and colonies were screened for the presence of the deletion construct. The IN-deletion construct was checked by sequence analysis with primers 5'EGINT1 (SEQ ID NO 1) or […] and 3'EGINT10 (SEQ ID NO 11) or 3'EGINT11 (SEQ ID NO 12). For use in recombination experiments, large-scale plasmid DNA preparations were linearized by SmaI digestion and recombined with PCR amplified integrase genes from wild type, mutant, or patient viruses. The plasmid containing the integrase deletion (ΔIN) has been deposited pSV40HXB2D-ΔIN. The sequence of said plasmid is 14377 nucleotides long. The ΔR-IN-vif deletion construct is 13975 nucleotides long. The pSV40HXB2D-ΔIN was deposited at the Belgian Coordinated Collections of Micro-Organisms located at the Universiteit Gent - Laboratorium voor Moleculaire Biologie on August 5, 2002 and the accession number is LMBP 4574.
(§3) Recombinant virus was produced by co-transfection by electroporation of the SmaI-linearized IN-deletion construct and the integrase amplicon into MT4 cells or MT4 cells equipped with an LTR driven reporter gene construct. Production of recombinant virus was evaluated by scoring the cytopathogenic effect (CPE) that is induced by HIV-infection of MT4 cells or by the LTR-driven reporter signal induced by HIV infection in MT4 reporter cells.

NL 4-3 = assay: microbe, parasite or virus in culture; format: cell-based, HIV-1; conditions: for fold change: fold change in EC50; for pEC50: read-out: EC 50
Description: as §1, §2, §3

WT III B = assay: microbe, parasite or virus in culture; format: cell-based, HIV-1; conditions: AVE 5, WT III B, primer set 4
Description: as §1, §2, §3

CC(C)CN(C[C@@H](O)[C@H](Cc1ccccc1)NC(=O)O[C@H]1CO[C@H]2OCC[C@H]21)S(=O)(=O)c1ccc(N)cc1 [Compound 3, [(11S,2R)-3-[[(4-aminophenyl)sulfonyl](2-methylpropyl)amino]-2-hydroxy-1-(phenylmethyl)-propyl]-, (3R,3aS,6aR)-hexahydrofuro[2,3-b]furan-3-yl ester carbamic acid]
pEC50 (pHXB2D control): 8.15
fold change (pHXB2D control; fold change in EC50): 1,0
fold change (patient_146514; fold change in EC50): 2,2
pEC50 (patient_146514; read-out: EC 50): 7.81
fold change (NL 4-3; AVE 1, NL 4-3, primer set 3): 0,5
pEC50 (NL 4-3; AVE 1, NL 4-3, primer set 3): 8.43
fold change (NL 4-3; AVE 4, NL4-3, primer set 4): 1,5
pEC50 (NL 4-3; AVE 4, NL4-3, primer set 4): 7.96
fold change (WT III B; fold change in EC50): 0,9
pEC50 (WT III B; read-out: EC 50): 8.20
